{"source": "patent US20230150970A1", "about": "“AMINOPYRIMIDINE DERIVATIVES AND THEIR USE AS ARYL HYDROCARBON RECEPTOR MODULATORS” (DONG-A ST CO., LTD., priority 2020, published 2023)"}
{"biological_target": "T1, AhR (Homo sapiens, UniProt P35869)", "T1 sequence (P35869 11-848)": "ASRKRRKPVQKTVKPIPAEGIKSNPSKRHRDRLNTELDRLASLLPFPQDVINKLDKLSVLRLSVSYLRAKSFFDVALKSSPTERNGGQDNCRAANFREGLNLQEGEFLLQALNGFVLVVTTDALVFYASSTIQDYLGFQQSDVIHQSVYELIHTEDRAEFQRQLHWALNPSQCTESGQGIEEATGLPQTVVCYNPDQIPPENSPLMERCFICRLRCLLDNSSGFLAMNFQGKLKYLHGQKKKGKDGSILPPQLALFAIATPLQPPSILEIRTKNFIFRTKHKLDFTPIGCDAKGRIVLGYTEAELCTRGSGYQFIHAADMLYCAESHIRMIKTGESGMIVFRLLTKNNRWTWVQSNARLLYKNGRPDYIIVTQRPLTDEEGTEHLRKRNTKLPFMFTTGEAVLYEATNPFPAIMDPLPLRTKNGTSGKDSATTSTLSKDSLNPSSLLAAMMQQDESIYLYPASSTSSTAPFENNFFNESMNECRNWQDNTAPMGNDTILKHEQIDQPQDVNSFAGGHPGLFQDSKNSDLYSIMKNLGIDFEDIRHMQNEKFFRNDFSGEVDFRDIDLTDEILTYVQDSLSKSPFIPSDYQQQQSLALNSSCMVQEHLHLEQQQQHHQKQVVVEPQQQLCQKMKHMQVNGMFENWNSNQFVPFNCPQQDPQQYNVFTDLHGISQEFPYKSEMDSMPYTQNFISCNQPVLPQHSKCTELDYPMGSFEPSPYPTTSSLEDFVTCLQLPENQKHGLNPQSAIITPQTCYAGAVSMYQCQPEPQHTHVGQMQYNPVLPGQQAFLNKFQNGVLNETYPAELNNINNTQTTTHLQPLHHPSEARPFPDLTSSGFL", "experiment": "In Vitro Assay 1: XRE-luciferase reporter assay, antagonism in human cell line (HepG2)", "settings": "Assay 1: AhR-Luc Human Antagonism (IC50, nM), unmarked values: kynurenine 200 μM, 6 hours", "units": {"IC50": "nM"}}
{"compound": "CN(C)CCNc1ccc(-c2cc(N3CC[C@H](O)C3)nc(-c3cccnc3)n2)cn1", "note": "[Example 301, (S)-1-(6-(6-((2-(dimethylamino)ethyl)amino)pyridin-3-yl)-2-(pyridin-3-yl)pyrimidin-4-yl)pyrrolidin-3-ol]", "IC50": "100 to 1000"}
{"compound": "CC1CN(c2cc(-c3ccc(Cl)cc3)nc(-c3cccnc3)n2)CC(=O)N1", "note": "(stereo not shown) [Example 365, 4-(6-(4-chlorophenyl)-2-(pyridin-3-yl)pyrimidin-4-yl)-6-methylpiperazin-2-one]", "IC50": "100 to 1000"}
{"compound": "OC[C@@H]1CCN(c2cc(-c3ccc(C(F)(F)F)cc3)nc(-c3cccnc3)n2)C[C@@H]1O", "note": "[Example 265, (3R,4S)-4-(hydroxymethyl)-1-(2-(pyridin-3-yl)-6-(4-(trifluoromethyl)phenyl)pyrimidin-4-yl)piperidin-3-ol]", "IC50": "< 10"}
{"compound": "Cn1cc(-c2nc(-c3ccc(Cl)cc3)cc(N3CCN(S(C)(=O)=O)CC3)n2)cn1", "note": "[Example 321, 4-(4-chlorophenyl)-2-(1-methyl-1H-pyrazol-4-yl)-6-(4-(methylsulfonyl)piperazin-1-yl)pyrimidine]", "IC50": "100 to 1000"}
{"compound": "OC[C@H]1CN(c2cc(-c3ccc(C(F)(F)F)cc3)nc(-c3cccnc3)n2)C[C@H]1O", "note": "[Example 256, (3S,4R)-4-(hydroxymethyl)-1-(2-(pyridin-3-yl)-6-(4-(trifluoromethyl)phenyl)pyrimidin-4-yl)pyrrolidin-3-ol]", "IC50": "< 10"}
{"biological_target": "T1, AhR", "experiment": "In Vitro Assay 1: XRE-luciferase reporter assay, antagonism in human cell line (HepG2)", "settings": "Assay 1: AhR-Luc Human Antagonism (IC50, nM), values marked *: kynurenine 50 μM, 6 hours", "units": {"IC50": "nM"}}
{"compound": "NC1CCN(c2cc(-c3ccc(Cl)cc3)nc(-c3cccnc3)n2)C1", "note": "(stereo not shown) [Example 140, 1-(6-(4-chlorophenyl)-2-(pyridin-3-yl)pyrimidin-4-yl)pyrrolidin-3-amine]", "IC50": "> 1000"}
{"compound": "CC(OC(=O)C(F)(F)F)C1CCN(c2cc(-c3ccc(Cl)cc3)nc(-c3cccnc3)n2)CC1", "note": "(stereo not shown) [Example 172, 1-(1-(6-(4-chlorophenyl)-2-(pyridin-3-yl)pyrimidin-4-yl)piperidin-4-yl)ethyl 2,2,2-trifluoroacetate]", "IC50": "< 10"}
{"compound": "Fc1ccccc1N1CCN(c2cc(-c3ccc(Cl)cc3)nc(-c3cccnc3)n2)CC1", "note": "[Example 85, 4-(4-chlorophenyl)-6-(4-(2-fluorophenyl)piperazin-1-yl)-2-(pyridin-3-yl)pyrimidine]", "IC50": "100 to 1000"}
{"compound": "Clc1ccc(-c2cc(NCC3CCN(Cc4ccccc4)CC3)nc(-c3cccnc3)n2)cc1", "note": "[Example 159, N-((1-benzylpiperidin-4-yl)methyl)-6-(4-chlorophenyl)-2-(pyridin-3-yl)pyrimidin-4-amine]", "IC50": "100 to 1000"}
{"compound": "CN1CCCCC1CCNc1cc(-c2ccc(Cl)cc2)nc(-c2cccnc2)n1", "note": "(stereo not shown) [Example 168, 6-(4-chlorophenyl)-N-(2-(1-methylpiperidin-2-yl)ethyl)-2-(pyridin-3-yl)pyrimidin-4-amine]", "IC50": "> 1000"}
{"compound": "CC1CCN(c2cc(-c3ccc(Cl)cc3)nc(-c3cnn(C)c3)n2)CC1", "note": "[Example 180, 4-(4-chlorophenyl)-2-(1-methyl-1H-pyrazol-4-yl)-6-(4-methylpiperidin-1-yl)pyrimidine]", "IC50": "> 1000"}
{"compound": "CN(C)CCCNc1cc(-c2ccc(Cl)cc2)nc(-c2cccnc2)n1", "note": "[Example 20, N^1-(6-(4-chlorophenyl)-2-(pyridin-3-yl)pyrimidin-4-yl)-N^3,N^3-dimethylpropane-1,3-diamine]", "IC50": "> 1000"}
{"compound": "Clc1ccc(-c2cc(N3CCN(Cc4ccc5c(c4)OCO5)CC3)nc(-c3cccnc3)n2)cc1", "note": "[Example 97, 4-(4-(benzo[d][1,3]dioxol-5-ylmethyl)piperazin-1-yl)-6-(4-chlorophenyl)-2-(pyridin-3-yl)pyrimidine]", "IC50": "< 10"}
{"compound": "Clc1ccc(-c2cc(N3CCN(c4ccccn4)CC3)nc(-c3cccnc3)n2)cc1", "note": "[Example 89, 4-(4-chlorophenyl)-6-(4-(pyridin-2-yl)piperazin-1-yl)-2-(pyridin-3-yl)pyrimidine]", "IC50": "10 to 100"}
{"biological_target": "T1, AhR", "experiment": "In Vitro Assay 1: XRE-luciferase reporter assay, antagonism in human cell line (HepG2)", "settings": "read-out: Assay 1: AhR-Luc Human Antagonism (IC50), values marked *: kynurenine 50 μM, 6 hours", "units": {"IC50": "nM"}}
{"compound": "Trans-4-((6-(4-chlorophenyl)-2-(pyridin-3-yl)pyrimidin-4-yl)amino)cyclohexan-1-ol [Example 217]", "IC50": "10 to 100"}
{"compound": "(R)-(4-(6-(4-chlorophenyl)-2-(pyridin-3-yl)pyrimidin-4-yl)piperazin-2-yl)methanol [Example 79]", "IC50": "> 1000"}
